Assay results: US9447086B2, “6-amino acid heteroaryldihydropyrimidines for the treatment and prophylaxis of hepatitis B virus infection” (priority 2012, dated 2016)
Converted amounts (≈) assume the structure as drawn. Where two headings read alike, the source gives them in different places.

Columns and labels:
[1] = Metabolic stability study in human microsome; format: in vitro ADME
Description: Human Microsomes were preincubated with test compound for 10 min at 37° C. in 100 mM phosphate buffer, pH 7.4. The reactions were initiated by adding NADPH or NADPH regenerating system to give a final incubation volume of 400 μL. For NADPH system, the final incubations contained 1 μM test compound, 0.5 mg/mL liver microsomal protein, 1 mM NADPH in 100 mM phosphate buffer, pH 7.4. For the NADPH regenerating system, the final incubations contained 1 μM test compound, 0.5 mg/mL liver microsomal protein, 3 mM glucose 6-phosphate, 1 mM NADP, 3 mM MgCl2 and 0.05 mg/mL glucose 6-phosphate dehydrogenase in 100 mM phosphate buffer, pH 7.4. After incubation times of 0, 3, 6, 9, 15 and 30 minutes at 37° C., 50 μL samples was removed and transferred to 150 μL methanol solution which was maintained at 4° C. containing 2 μM tolbutamide (internal standard) to terminating the reaction. Following precipitation and centrifugation, the amount of compound remaining in the samples were determined by LC-MS/MS. Controls of no NADPH or NADPH regenerating system at zero and 30 min were also prepared and analyzed.

[2] = Lyophilisation solubility assay (Lysa); format: physicochemical; settings: pH 6.5, aqueous buffer, thermodynamic from solid
Description: The aqueous solubility is an important physico-chemical property that plays a significant role in various physical and biological processes. It is desirable to have good solubility which enables good permeability and gastric and intestinal absorption, linear dose proportionality, less PK variability, and easy formulation for PD/PK studies. […] Lyophilisation solubility assay (Lysa) is a well adopted high throughput assay to measure compound solubility in industry.
Samples are prepared in duplicate from 10 mM DMSO stock solutions. After evaporation of DMSO with a centrifugal vacuum evaporator, the residue is solved in 0.05 M phosphate buffer (pH 6.5), stirred for one hour and shaken for two hours. After one night, the solutions is filtered using a microtiter filter plate and the filtrate and its 1/10 dilution are then analyzed by direct UV measurement or by HPLC-UV. […] The results are in μg/mL.

[3] = system: HBV; experiment: Anti-HBV activity in vitro in HepG2.2.15 cells (extracellular HBV DNA by qPCR); format: cell-based, Hepatitis B virus; settings: Hepatitis B virus
Text: HepG2.2.15 and HepDE19 are stably-transfected cell lines containing the HBV genome. Both cell lines are derived from the hepatoblastoma cell line Hep G2 (American Type Culture Collection, ATCC® HB-8065™) by the published procedures described in references: MA Selles et al. Proc. Natl. Acad. Sci. USA 1987, 84, 1005-1009 and H Guo et al. Journal of Virology 2007, 81, 12472-12484, respectively. Both cell lines were maintained in Dulbecco's modified Eagle's medium (DMEM)-F12 medium supplemented with 10% fetal bovine serum, 100 U/mL penicillin, 100 μg/mL streptomycin, and 0.5 mg/mL of G418.
While HepG2.2.15 cells constitutively support HBV replication and production of virus particles, HepDE19 cells are inducible by tetracycline. Addition of 1 μg/mL tetracycline in culture medium suppresses HBV replication in HepDE19 cells, whereas switching to tetracycline-free medium resumes this process.
HepG2.2.15 cells were seeded into 96-well plates (3×10^4 cells in 100 μl media per well) and incubated overnight at 37° C. The test compounds were serially half-log diluted in DMSO, then diluted 100 times in culture media. 100 μL diluted compounds were added into the plates to reach 0.5% final concentration of DMSO in every well. Five days after compound treatment, culture supernatant was collected for further analysis.
For quantitative PCR detection of extracellular HBV DNA, 100 μL culture supernatant was collected and processed in MagNA Pure 96 Nucleic Acid Purification System (Roche Applied Science) for viral DNA extraction. The extracted samples were subjected to HBV DNA quantification by qPCR.
The compounds of the present invention were tested for their capacity to inhibit a HBV activity and activation as described herein.

[4] = HepG2.2.15 cells, in-house data, read-out: EC50

| SMILES | Human Hepatic Clearance [1] | solubility thermodynamic ([2]; phosphate buffer) | EC50 [3, 4] | solubility thermodynamic [2] | EC50 ([3]; HepG2.2.15) |
| --- | --- | --- | --- | --- | --- |
| COC(=O)C1=C(CN2C[C@H](C(=O)O)CC(F)(F)C2)NC(c2nccs2)=N[C@H]1c1ccc(F)cc1Cl [Example 14, (R)-6-((R)-5-Carboxy-3,3-difluoro-piperidin-1-ylmethyl)-4-(2-chloro-4-fluoro-phenyl)-2-thiazol-2-yl-1,4-dihydro-pyrimidine-5-carboxylic acid methyl ester] | 1.41 mL/min/kg | > 644 µg/mL | 41 nM |  |  |
| COC(=O)C1=C(CN2CCOC[C@H]2C(=O)O)NC(c2nc(C)cn2C)=NC1c1ccc(F)cc1Cl (stereo in doubt) [Example 92, (S)-4-[(S)-6-(2-Chloro-4-fluoro-phenyl)-2-(1,4-dimethyl-1H-imidazol-2-yl)-5-methoxycarbonyl-3,6-dihydro-pyrimidin-4-ylmethyl]-morpholine-3-carboxylic acid] | 1.26 mL/min/kg | > 602 µg/mL | 14 nM |  |  |
| CCOC(=O)C1=C(CN2CCO[C@H](C)[C@H]2C(=O)O)NC(c2nccs2)=N[C@H]1c1ccc(F)cc1Br [Example 116, (2R,3S)-4-[(R)-6-(2-Bromo-4-fluoro-phenyl)-5-ethoxycarbonyl-2-thiazol-2-yl-3,6-dihydro-pyrimidin-4-ylmethyl]-2-methyl-morpholine-3-carboxylic acid] | 0 mL/min/kg |  |  | > 735 µg/mL | 1.8 nM |
| COC(=O)C1=C(CN2CC(F)(F)C[C@H]2C(=O)O)NC(c2cc(Cl)cs2)=N[C@H]1c1ccc(F)cc1Cl [Example 23, (R)-6-((S)-2-Carboxy-4,4-difluoro-pyrrolidin-1-ylmethyl)-4-(2-chloro-4-fluoro-phenyl)-2-(4-chloro-thiophen-2-yl)-1,4-dihydro-pyrimidine-5-carboxylic acid methyl ester] | 8.8 mL/min/kg | 172 µg/mL (≈ 314 µM) | 25 nM |  |  |
| CCOC(=O)C1=C(CN2CCOC[C@H]2C(=O)O)NC(c2nccs2)=N[C@H]1c1cc(F)cc(Cl)c1 [Example 125, (3S)-4-[[(4S)-4-(3-Chloro-5-fluorophenyl)-5 ethoxycarbonyl-2-(1,3-thiazol-2-yl)-1,4-dihydropyrimidin-6-yl]methyl]morpholine-3 carboxylic acid] | 1.32 mL/min/kg | > 636 µg/mL | 30 nM |  |  |
| COC(=O)C1=C(CN2CC(F)(F)C[C@H]2C(=O)O)NC(c2nc(SC)cs2)=N[C@H]1c1ccc(F)cc1Cl [Example 62, (2S)-1-[[(4R)-4-(2-Chloro-4-fluorophenyl)-5-methoxycarbonyl-2-(4-methylsulfanyl-1,3-thiazol-2-yl)-1,4-dihydropyrimidin-6-yl]methyl]-4,4-difluoropyrrolidine-2-carboxylic acid] | 9.06 mL/min/kg |  | 14 nM |  |  |
| COC(=O)C1=C(CN2CC(F)(F)C[C@H]2C(=O)O)NC(c2ncccc2C)=N[C@H]1c1ccc(F)cc1Cl [Example 24, (R)-6-((S)-2-Carboxy-4,4-difluoro-pyrrolidin-1-ylmethyl)-4-(2-chloro-4-fluoro-phenyl)-2-(3-methyl-pyridin-2-yl)-1,4-dihydro-pyrimidine-5-carboxylic acid methyl ester] | 3.19 mL/min/kg | 656 µg/mL (≈ 1250 µM) | 26 nM |  |  |
| COC(=O)C1=C(CN2CC(F)(F)C[C@H]2C(=O)O)NC(c2nc(C)co2)=N[C@H]1c1ccc(F)cc1Cl [Example 15, (R)-6-((S)-2-Carboxy-4,4-difluoro-pyrrolidin-1-ylmethyl)-4-(2-chloro-4-fluoro-phenyl)-2-(4-methyl-oxazol-2-yl)-1,4-dihydro-pyrimidine-5-carboxylic acid methyl ester] | 3.53 mL/min/kg | > 627 µg/mL |  |  |  |
| COC(=O)C1=C(CN2CCOC[C@H]2C(=O)O)NC(c2nccn2C)=NC1c1ccc(F)cc1Cl (stereo partly drawn) [Example 13, (S)-4-[6-(2-Chloro-4-fluoro-phenyl)-5-methoxycarbonyl-2-(1-methyl-1H-imidazol-2-yl)-3,6-dihydro-pyrimidin-4-ylmethyl]-morpholine-3-carboxylic acid] | 2.33 mL/min/kg | 594 µg/mL (≈ 1210 µM) |  |  |  |
| COC(=O)C1=C(CN2CCSC(C)(C)[C@H]2C(=O)O)NC(c2nccs2)=N[C@H]1c1ccc(F)cc1Cl [Example 90, (3R)-4-[[(4R)-4-(2-Chloro-4-fluoro-phenyl)-5-methoxycarbonyl-2-thiazol-2-yl-1,4-dihydropyrimidin-6-yl]methyl]-2,2-dimethyl-thiomorpholine-3-carboxylic acid] | 5.52 mL/min/kg | > 610 µg/mL |  |  |  |
| CCOC(=O)C1=C(CN2CC(F)(F)C[C@H]2C(=O)O)NC(c2nccs2)=N[C@H]1c1cccc(F)c1Br [Example 67, (R)-4-(2-Bromo-3-fluoro-phenyl)-6-((S)-2-carboxy-4,4-difluoro-pyrrolidin-1-ylmethyl)-2-thiazol-2-yl-1,4-dihydro-pyrimidine-5-carboxylic acid ethyl ester] | 6.42 mL/min/kg | 590 µg/mL (≈ 1030 µM) |  |  |  |
| COC(=O)C1=C(CN2CC(F)(F)C[C@H]2C(=O)O)NC(c2ccc(F)cc2F)=N[C@H]1c1ccc(F)cc1Cl [Example 33, (R)-6-((S)-2-Carboxy-4,4-difluoro-pyrrolidin-1-ylmethyl)-4-(2-chloro-4-fluoro-phenyl)-2-(2,4-difluoro-phenyl)-1,4-dihydro-pyrimidine-5-carboxylic acid methyl ester] | 4.15 mL/min/kg |  | 23 nM |  |  |
| CCOC(=O)C1=C(CN2CC(F)(F)C[C@H]2C(=O)O)NC(c2nccs2)=NC1c1ccc(F)c(F)c1Cl (stereo in doubt) [Example 55, (R)-6-((S)-2-Carboxy-4,4-difluoro-pyrrolidin-1-ylmethyl)-4-(2-chloro-3,4-difluoro-phenyl)-2-thiazol-2-yl-1,4-dihydro-pyrimidine-5-carboxylic acid ethyl ester] |  | > 670 µg/mL | 1 nM |  |  |
| COC(=O)C1=C(CN2CC(F)(F)CCC2C(=O)O)NC(c2nccs2)=N[C@H]1c1ccc(F)cc1Cl (stereo partly drawn) [Example 7, (R)-6-(2-Carboxy-5,5-difluoro-piperidin-1-ylmethyl)-4-(2-chloro-4-fluoro-phenyl)-2-thiazol-2-yl-1,4-dihydro-pyrimidine-5-carboxylic acid methyl ester] | 6.12 mL/min/kg | 398 µg/mL (≈ 752 µM) |  |  |  |
| COC(=O)C1=C(CN2CC(F)(F)C[C@H]2C(=O)O)NC(c2cc(C)ccn2)=N[C@H]1c1ccc(F)cc1Cl [Example 8, (R)-6-((S)-2-Carboxy-4,4-difluoro-pyrrolidin-1-ylmethyl)-4-(2-chloro-4-fluoro-phenyl)-2-(4-methyl-pyridin-2-yl)-1,4-dihydro-pyrimidine-5-carboxylic acid methyl ester] | 6.33 mL/min/kg | > 620 µg/mL |  |  |  |
| CCOC(=O)C1=C(CN2CCOC[C@H]2C(=O)O)NC(c2cccc(C)n2)=N[C@H]1c1ccc(F)cc1Cl [Example 37, (S)-4-[(R)-6-(2-Chloro-4-fluoro-phenyl)-5-ethoxycarbonyl-2-(6-methyl-pyridin-2-yl)-3,6-dihydro-pyrimidin-4-ylmethyl]-morpholine-3-carboxylic acid] | 7 mL/min/kg | > 593 µg/mL |  |  |  |
